# Reference: patent publication US5296487A, “Quinazoline derivatives and their preparation” (priority 1990, dated 1994)
# Counter-ions that a name gives are not always drawn.
# Key:
# [1] = Effect on Renal Blood Flow; type: in vivo, Male beagle dogs; settings: 10 μg/kg i.v., anesthetized dogs
# Procedure: Test 6 Effect on Renal Blood Flow
# Male beagle dogs, weighing 7-12 kg were anesthetized with sodium pentobarbital (30 mg/kg i.v.). The left renal artery was exposed retroperitoneally through a flank incision, and an electromagnetic flowmeter probe were placed around the left renal artery to measure renal blood flow.
# [2] = Effect on Plasma Triglyceride Level; type: in vivo, Male SD rats; settings: dose 10 mg/kg/day, orally once a day for two weeks; STZ-induced diabetic rats
# Procedure: Test 7 [Effect on Plasma Triglyceride Level]
# Male SD rats weighing 180-230 g were made diabetic by intravenous administration of streptozotocin (STZ) at a dose of 60 mg/kg dissolved in 2 mM citrate buffer (pH 4.5). One week later, the rats were grouped by plasma triglyceride level and test compound were administered orally once a day for two weeks. Then blood samples were collected from orbital vein, and plasma triglyceride levels were measured enzymatically (Triglyceride G-Test WAKO). Control group received 0.5% methyl cellulose.
# [3] = Stability (storage at accelerated conditions); type: physicochemical; settings: for Residual Amount (%): 12960 min
# Procedure: Test Compounds were stored for 9 days at accelerated conditions as shown in the following table, and the residual amounts of them were determined by a High Performance Liquid Chromatography (HPLC).
# [4] = Solubility of the test compounds in various solvents; type: physicochemical; settings: for Solubility: ambient temperature
# Procedure: The solubility of the test compounds in various solvents was measured at ambient temperature.
# [5] = tested on: reserpine-induced DOPA accumulation; experiment: Inhibition of reserpine-induced DOPA accumulation; type: in vivo, Male SD rats; settings: dose 3.2 mg/kg, orally, 2 hours before sacrifice; striatum
# Procedure: Test 2 [Inhibition of reserpine-induced DOPA accumulation]
# Male SD rats weighing 300-400 g were used in this test. Rats were pretreated with reserpine (1 mg/kg, S.C.) 17-19 hours before sacrifice and then fasted. Test Compound was given orally to the rats 2 hours before sacrifice. [m-Hydroxybenzylhydrazine (100 mg/kg, i.p.) was given 30 minutes before sacrifice.] Each rat was exposed to microwaves using a head-focus microwave applicator for 1.5 seconds. The whole brain was removed and further separated into the striatum.
# DOPA was determined as follows; the striatum was homogenized in 9 volumes of 0.1N perchloric acid solution (0.4% EDTA·2Na). The homogenate was centrifuged at 10,000 rpm for 1 minutes. The supernatant was applied to high performance liquid chromatography.
# [6] = Hypotensive effect on spontaneous hypertensive rats; type: in vivo, male spontaneous hypertensive rats; settings: dose 0.32 mg/kg, orally
# Procedure: Test 3 [Hypotensive effect on spontaneous hypertensive rats] 15 to 25-Week-old male spontaneous hypertensive rats with mean arterial blood pressure of about 160-200 mmHg, weighing 300-350 g, were used. The animals were cannulated in the left femoral artery and the mean blood pressure and heart rate were measured with a pressure-transducer. The animals were deprived of food for about 18 hours before oral dosing. The Test Compound was suspended in 0.5% methylcellulose, and given orally.
# DA2 receptor = target: T1, DA2 receptor (Rattus norvegicus, UniProt P61169); experiment: Dopamine receptor (DA2 receptor) binding assay
# T1 construct: the striatum were dissected from their brains; from tissue; host or cells: rat striatum (male rats, 150-300 g), washed homogenate pellet
# T1 sequence (P61169 whole entry): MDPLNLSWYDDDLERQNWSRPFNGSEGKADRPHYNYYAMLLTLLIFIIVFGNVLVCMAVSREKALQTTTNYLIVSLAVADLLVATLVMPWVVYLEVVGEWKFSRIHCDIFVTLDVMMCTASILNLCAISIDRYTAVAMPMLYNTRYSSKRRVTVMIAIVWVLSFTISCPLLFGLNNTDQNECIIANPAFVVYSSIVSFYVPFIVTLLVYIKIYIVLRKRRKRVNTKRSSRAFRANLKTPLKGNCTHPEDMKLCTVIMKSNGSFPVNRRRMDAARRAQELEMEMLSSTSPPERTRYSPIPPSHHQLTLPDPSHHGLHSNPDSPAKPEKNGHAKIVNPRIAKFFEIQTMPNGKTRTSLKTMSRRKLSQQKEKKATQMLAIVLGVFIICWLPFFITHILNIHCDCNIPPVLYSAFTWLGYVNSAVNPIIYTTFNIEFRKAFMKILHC
# Procedure: Test 1 Dopamine receptor (DA2 receptor) binding assay
# The affinity for DA2 receptor of a Test Compound was determined following in vitro receptor binding assays.
# Male rats weighing 150-300g were decapitated and the striatum were dissected from their brains. The tissue was homogenized in 30 volumes of buffer which consisted of 50 mM Tris-HCl (pH 7.4 at 25° C.), 120 mM sodium chloride, 5 mM potassium chloride, 1 mM calcium chloride, 1 mM magnesium chloride, 10 μM pargirine, and 0.1% ascorbic acid. The homogenate was centrifuged at 50,000 g for 15 minutes. The pellet was resuspended in 30 volumes of the buffer. The tissue suspension was centrifuged and suspended again in the same way.
# Incubation tubes received 100 μl of [phenyl-4-^3 H]spiperone, 100 μl of the Test Compound and 0.8 ml of tissue suspension during binding assays. The concentration of [phenyl-4-^3 H]spiperone was 0.2 nM. The final tissue concentration of rat striatum was 160 μg/ml. […] The filters were counted by liquid scintillation counter.
# Specific binding of the [^3 H]spiperone was determined in the presence of 1 μM butaclamol. The IC50 value of the Test Compound was calculated from the data of [^3 H]spiperone binding in the present of 10^-9 M, 10^-8 M, 10^-7 M and 10^-6 M Test Compound.
# α1-adrenoceptor = α1-adrenoceptor binding assay; settings: 3H-Prazosin binding, rat whole brain membranes
# Procedure: Test 5 [α1-adrenoceptor binding assay]
# Male Wistar rats (200-250 g) were killed by decapitation and the brain was placed in ice-cold buffer (0.25 M sucrose, 5 mM Tris/HCl, 1 mM MgCl2, pH 7.5).
# Whole brain was homogenized in 10-20 volume (w/v) of ice-cold buffer for 20 strokes using a motor-drived Teflon-glass homogenizer. The homogenate was centrifuged at 1,000 g for 10 min at 4° C., and the pellet was discarded. The supernatant was centrifuged at 30,000 g for 20 min at 4° C. The pellet obtained was washed by
# resuspension in 20 ml ice-cold 50 mM Tris/HCl, 10 mM MgCl2 buffer (pH 7.5) and recentrifuged at 30,000 g for 20 min at 4° C. The final pellet was resuspended in 15 volumes of original wet weight of 50 mM Tris/HCl, 10 mM MgCl2 buffer (pH 7.5) for use in the assays.
# For ^3 H-Prazosin binding to rat brain, membrane suspensions prepared from rat whole brain (0.3-0.4 mg protein) were incubated by constant shaking for 20 min at 30° C. with ^3 H-Prazosin ([…]) and increasing concentrations of test compounds (10^-6 -10^-9 M) in a total volume of 550 μl of 50 mM Tris/HCl, 10 mM MgCl2 buffer containing 0.1 mg/ml bovine serum albumin (pH 7.5). […] These filter disks were counted by liquid scintillation counter with an efficacy of 40%. […] The concentration of the test compound inhibiting 50% of the specific binding of ^3 H-Prazosin was calculated by log profit analysis of the binding data.
# [7] = 70° C./75% Relative Humidity, 9 days, HPLC
structure (smiles),measurement,setting,value
"CCS(=O)(=O)Nc1ccc2[nH]c(=O)n(CCCCN3CC=C(c4ccccc4)CC3)c(=O)c2c1 [Compound C, 6-Ethylsulfonylamino-3-[4-(4-phenyl-1,2,3,6-tetrahydropyridin-1-yl)butyl]-1,2,3,4-tetrahydroquinazoline-2,4-dione]",RBF (% change),[1],+29 % change
same,plasma triglyceride,[2],138.2 ± 47.0 mg/dL
same,remaining at 216 h,"[3]; 70° C., 9 days, HPLC, read-out: Residual Amount (%)",83.4%
same,Residual Amount (%),[3]; [7],69.6%
same,Solubility,[4]; isotonic saline,9.41 µg/mL
same,Solubility,[4]; water,7.4 µg/mL
"O=c1[nH]c2cc(NO)ccc2c(=O)n1CCCCN1CC=C(c2ccccc2)CC1 [Compound A, 7-hydroxyamino-3-[4-(4-phenyl-1,2,3,6-tetrahydropyridin-1-yl)butyl]-1,2,3,4-tetrahydroquinazoline-2,4-dione]",Inhibition (%),[5],33%
same,Maximum decrease of blood pressure (%),[6],34%
same,IC50,DA2 receptor,8.1 nM
same,IC50,α1-adrenoceptor,20 nM
"CCS(=O)(=O)Nc1ccc2[nH]c(=O)n(CCCCN3CC=C(c4ccccc4)CC3)c(=O)c2c1 [Compound D, 6-ethylsulfonylamino-3-[4-(4-phenyl-1,2,3,6=tetrahydropyridin-1-yl)butyl]-1,2,3,4=tetrahydroquinazoline-2,4-dione sulfate]",stability (in words),[3],better solubility and stability
same,Residual Amount (%),"[3]; 70° C., 9 days, HPLC",98.2%
same,Residual Amount (%),[3]; [7],99.7%
same,Solubility,[4]; isotonic saline,183 µg/mL
same,solubility (in words),[4]; versus the product of Example 32,better solubility
same,Solubility,[4]; water,733 µg/mL
"CS(=O)(=O)Nc1ccc2[nH]c(=O)n(CCCCN3CC=C(c4ccccc4)CC3)c(=O)c2c1 [Compound B, 3-[4-(4-phenyl-1,2,3,6-tetrahydropyridin-1-yl)butyl]-6-methylsulfonylamino-1,2,3,4-tetrahydroquinazoline-2,4-dione]",IC50,α1-adrenoceptor,38 nM
